US20100111874A1, “METHOD OF CANCER DETECTION AND TREATMENT” (University of Medicine and Dentistry of New Jresey, priority 2007, published 2010)

What was measured:
Format in all cases: cell-based
[1] = tested on: ZR-75-1 and BT474 breast cancer cells; experiment: Cell counting assay of CPT sensitivity; details: ZR-75-1 vs BT474 cells; one hr acute exposure
Protocol: Cell survival assays. MTT assay: Cells (3000 cells/well) are plated in 96-well microtiter plates and incubated at 37° C. in a CO2 incubator. For determination of IC50, cells are treated with varying concentrations of CPT for four days. Cells are then incubated with MTT (3-(4,5-dimethylthiazol-2-yl)-2,5-diphenyltetrazolium bromide) for 4 hrs at 37° C. The dye produced by viable cells is dissolved in DMSO and the optical density measured at 570 nm. All assays are performed at least twice in six replicate wells. Clonogenic assay: Cells (100-500 cells/plate) are plated in 6-well tissue culture plates and incubated at 37° C. in a CO2 incubator. Cells are then treated with various concentrations of CPT for 1 hr. Following CPT treatment, cells are washed free of CPT and placed in fresh medium. After 10 days, survived colonies are stained with Methylene blue and counted using the Minicount machine. Cell counting assay: Logarithmically growing cells are treated with various concentrations of CPT for 1 hr. CPT is then removed by washing the plates with CPT-free medium four times. […] Cell survival is determined by counting cells using the Coulter counter after trypsinization.
Breast cancer ZR-75-1 and BT474 cells are treated with CPT for 1 hr followed by incubation in CPT-free medium for 3 days. Cell survival is determined by cell counting using a Coulter counter as described in Materials and Methods.

MCF7 breast cancer cells = experiment: MTT assay, CPT IC50; details: Homo sapiens, 96 h, CPT continuously for 4 days
Protocol: (§1) Cell survival assays. MTT assay: Cells (3000 cells/well) are plated in 96-well microtiter plates and incubated at 37° C. in a CO2 incubator. For determination of IC50, cells are treated with varying concentrations of CPT for four days. Cells are then incubated with MTT (3-(4,5-dimethylthiazol-2-yl)-2,5-diphenyltetrazolium bromide) for 4 hrs at 37° C. The dye produced by viable cells is dissolved in DMSO and the optical density measured at 570 nm. All assays are performed at least twice in six replicate wells. Clonogenic assay: Cells (100-500 cells/plate) are plated in 6-well tissue culture plates and incubated at 37° C. in a CO2 incubator. Cells are then treated with various concentrations of CPT for 1 hr. Following CPT treatment, cells are washed free of CPT and placed in fresh medium. After 10 days, survived colonies are stained with Methylene blue and counted using the Minicount machine. Cell counting assay: Logarithmically growing cells are treated with various concentrations of CPT for 1 hr. CPT is then removed by washing the plates with CPT-free medium four times. Washed cells are allowed to grow in CPT-free medium for 4 days. Cell survival is determined by counting cells using the Coulter counter after trypsinization.
(§2) Example No. 6. […] Panel A, formation of cleavable complexes in MCF7 and MCF7/RC breast cancer cells. […]

[2] = tested on: MCF7/RC breast cancer cells; experiment: MTT assay, CPT IC50; details: Homo sapiens, 96 h; MCF7/RC low-level CPT-resistant clone; CPT continuously for 4 days
Protocol: as §1, §2

[3] = tested on: ZR-75-1 cells stably expressing ISG15 or UbcH8 shRNA; experiment: Clonogenic survival assay
Protocol: as §1, with “Washed cells are allowed to grow in CPT-free medium for 4 days.” left out
Example No. 3. […] Cell lysates of ZR-75-1 clones expressing either control shRNA (lane #1) or ISG15 shRNA (lanes #2) are analyzed by 15% SDS-PAGE. […] Equal protein loading is assessed by re-probing the same membrane with anti-tubulin antibody (lower panel). […] Equal protein loading is assessed by re-probing the same membrane blot with anti-tubulin antibody (lower panels).
Example No. 4. […] Cell lysates prepared from ZR-75-1 clones expressing either control shRNA (lane #1) or UbcH8 shRNA (lanes #2 and 3, from two independent clones), and the purified UbcH8 protein (lane #4) are analyzed by 15% SDS-PAGE. […] Equal protein loading is assessed by re-probing the same membrane with anti-tubulin antibody (lower panels). […] Cell lysates prepared from ZR-75-1 clones expressing either control shRNA (lane #1) or UbcH8 shRNA (lanes #2 and 3, two independent clones), and the purified UbcH8 protein (lane #4) are analyzed by 15% SDS-PAGE. […]

CC[C@@]1(O)C(=O)OCc2c1cc1n(c2=O)Cc2cc3ccccc3nc2-1 [CPT, camptothecin]
fold greater sensitivity to CPT based on IC50 values [1]: greater than 50 fold
IC50 (MCF7 breast cancer cells): 3.5 nM
IC50 [2]: 30 nM
resistance to CPT, clonogenic survival ([3]; ZR/ISG15-shRNA1 vs control-shRNA cells, one hr acute exposure): much more resistant
resistance to CPT, clonogenic survival ([3]; ZR/UbcH8-shRNA1 vs ZR/control-shRNA2, one-hr acute CPT exposure): much more resistant
resistance to CPT, clonogenic survival ([3]; ZR/UbcH8-shRNA2 vs ZR/control-shRNA2, one-hr acute CPT exposure): much more resistant
